Key:
[1] = Stability tests of treprostinil forms (dimer formation, room temperature stability); assay type: physicochemical
Description: The anhydrous form of treprostinil (TREPROSTINIL) has been previously described, e.g., in J. Org. Chem. 2004, 69, 1890-1902. […] A larger amount of dimers can form at higher temperatures. However, dimer formation is negligible at 5° C. Therefore, anhydrous treprostinil must be refrigerated for storage and transport. In the past, treprostinil had to be refrigerated and shipped with ice packs to maintain low (2° C.-8° C.) temperatures.
The instability of anhydrous treprostinil also imposes challenges to its preparation. To obtain anhydrous treprostinil, wet compound from recrystallization was heated in a vacuum. […] Therefore, heating temperature must be carefully controlled to avoid high heat when drying treprostinil in order to remove all water, otherwise these two dimer impurities will be produced.
Data has been generated to characterize a monohydrate form of treprostinil. […] Treprostinil monohydrate can be stored and shipped with no special handling.

[2] = Stability of anhydrous treprostinil at 25° C. (6-month stability report, lot 01A07002); assay type: physicochemical
Description: II. Stability of Anhydrous Form Versus Monohydrate Form of TREPROSTINIL at 25° C.
1. Stability Report (6-month) for anhydrous lot #01A07002
A 3.34-kg sample of treprostinil diethanolamine salt was dissolved in 40 L of sterile water, 60 L of ethyl acetate and 3.2 L of 3 M HCl were added and the mixture stirred. The layers were separated and the aqueous layer was extracted thrice with 20-L portions of ethyl acetate. The four organic layers were combined, the organic solution washed twice with 20-L portions of sterile water, once with 20 L of brine and dried over 2.97 kg of anhydrous sodium sulfate. The mixture was filtered and the filtrate was concentrated to yield treprostinil as a gummy solid. This solid was transferred to glass drying trays and let air-dry for 93 hours. This solid was then dissolved in 23.4 kg of ethanol, warmed to 48° C. and treated with 23.4 kg of warm (40-50° C.) sterile water. The solution was stirred and then stirring was stopped to allow the treprostinil to slowly crystallize. The resulting white solid was collected by filtration in an Aurora filter, washed with 45 L of a cold (6° C.) 20% ethanol in sterile water solution, the filter moved to a Hepa-filtered Finishing Room and the solid dried under house vacuum for 22.3 hours. The solid was transferred to drying trays and further dried in a vacuum oven at 55 deg. C and 0.26 Torr for 22.7 hours to give 2.63 kg (96.3%) of anhydrous treprostinil (Lot #01A07002) as a white solid.

CCCCC[C@H](O)CC[C@@H]1[C@H]2Cc3cccc(OCC(=O)O)c3C[C@H]2C[C@H]1O [Lot No. 01 A07002 (Anhydrous), 2-((1R,2R,3aS,9aS)-2-hydroxy-1-((S)-3-hydroxyoctyl)-2,3,3a,4,9,9a-hexahydro-1H-cyclopenta[b]naphthalen-5-yloxy)acetic acid]
Dimer formation ([1]; 5° C.): negligible | Stability (stability tests) ([1]; 25° C., dimers formed upon standing): not stable | Dimer formation on heating the solid ([1]; solid heated above 50° C. in vacuum drying): two dimers of treprostinil formed | HPLC Assay 750W93 ([2]; 3 months): 1.2 | HPLC Assay 751W93 ([2]; 3 months): 0.9 | HPLC Assay Treprostinil ([2]; 3 months): 98.1% | Physical examination ([2]; 3 months): White powder | Water (Karl Fischer) ([2]; 3 months): 0.7% | HPLC Assay 750W93 ([2]; 6 months): 1.5 | HPLC Assay 751W93 ([2]; 6 months): 1.1 | HPLC Assay Treprostinil ([2]; 6 months): 95.4% | Physical examination ([2]; 6 months): White powder | Water (Karl Fischer) ([2]; 6 months): 0.8% | HPLC Assay 750W93 ([2]; Initial): 0.2 | HPLC Assay 751W93 ([2]; Initial): 0.3 | HPLC Assay Treprostinil ([2]; Initial): 99.6% | Physical examination ([2]; Initial): White powder | Water (Karl Fischer) ([2]; Initial): 0.4%
